# Measurements: ChEMBL document CHEMBL5154856, “Targeting the tumor microenvironment by an enzyme-responsive prodrug of tubulin destabilizer for triple-negative breast cancer therapy with high safety” (Eur J Med Chem, 2022)
# pIC50: −log10 of the molar value. Active and inactive are the calls of the source. The calls are words filed in the database; no cut-off is given here.
# Legend:
# [1] = Cardiotoxicity in nude mouse assessed as prolonged QT intervals at 20 to 40 mg/kg, iv administered once daily for 3 days by ECG analysis; type: toxicity, organism-based; conditions: in vivo, 72 h, dose 20-40 mg/kg, time 3 day
# [2] = Chemical stability of compound at pH 7.4 in bovine serum at 1 mg incubated for 48 hrs by HPLC analysis; type: ADME, cell-free; conditions: cattle, pH 7.4, 48 h
# HeLa [3] = test: Antiproliferative activity against human HeLa cells assessed as inhibition of cell growth incubated for 48 hrs in presence of beta-glucuronidase by MTT assay; type: functional, cell-based
# [4] = Toxicity in nude mouse assessed as effect on alkaline phosphatase level in serum at 40 mg/kg, iv administered qd for 3 days (reference value: 66 U/L); type: organism-based; conditions: in vivo, 72 h, time 3 day
# [5] = Stability of compound in phosphate buffer at pH 7.4 assessed as Escherichia coli beta-glucuronidase mediated compound cleavage at 1.2 mg measured after 30 mins by HPLC analysis; type: ADME; conditions: pH 7.4, 0.5 h
# MDA-MB-231 [6] = test: Antitumor activity against mouse xenografted with human MDA-MB-231 cells assessed as increase in tumor necrosis area at 20 to 40 mg/kg, iv administered every 2 days for 14 days by H and E staining based assay; type: functional, organism-based; conditions: dose 20-40 mg/kg, time 14.0 day
# MDA-MB-231 [7] = test: Antiproliferative activity against human MDA-MB-231 cells assessed as inhibition of cell growth incubated for 48 hrs in presence of beta-glucuronidase by MTT assay; type: functional, cell-based; conditions: MDA-MB-231, 48 h
# [8] = Chemical stability of compound at pH 7.4 in PBS buffer at 1 mg incubated for 48 hrs by HPLC analysis; type: physicochemical; conditions: pH 7.4, 48 h
# [9] = Toxicity in nude mouse assessed as effect on neutrophil level at 40 mg/kg, iv administered qd for 3 days (reference value: 7.40 %); type: organism-based; conditions: in vivo, 72 h, time 3 day
# SK-OV-3 = test: Antiproliferative activity against human SK-OV-3 cells assessed as inhibition of cell growth incubated for 48 hrs in absence of beta-glucuronidase by MTT assay; type: functional, cell-based; conditions: SK-OV-3, 48 h
# [10] = Cardiotoxicity in nude mouse assessed as abnormal spikes at 20 to 40 mg/kg, iv administered once daily for 3 days by ECG analysis; type: toxicity, organism-based; conditions: in vivo, 72 h, dose 20-40 mg/kg, time 3 day
# [11] = Metabolic stability in rat liver microsomes assessed as intrinsic clearance in liver at 10 mM measured up to 60 mins in presence of NADPH by LC-MS/MS analysis; type: ADME, Microsome; conditions: read-out: CLH
# [12] = Toxicity in nude mouse assessed as effect on monocytes level at 40 mg/kg, iv administered qd for 3 days (reference value: 37.10 %); type: organism-based; conditions: in vivo, 72 h, time 3 day
# MDA-MB-231 [13] = test: Antitumour activity against human MDA-MB-231 cells xenografted in nude mouse assessed as tumor growth inhibition at 20 mg/kg,iv administered every 2 days for 14 days; type: functional; conditions: MDA-MB-231, 336 h, time 14 day, read-out: TGI
# [14] = Acute toxicity in BALB/c mouse assessed as lethal dose administered intravenously as single dose and measured after 14 days; conditions: in vivo, route iv, time 14 day
# [15] = Toxicity in nude mouse assessed as effect on platelet distribution width at 40 mg/kg, iv administered qd for 3 days (reference value: 20.2); type: organism-based; conditions: in vivo, 72 h, time 3 day
# [16] = Toxicity in nude mouse assessed as effect on white blood cell count at 40 mg/kg, iv administered qd for 3 days (reference value: 0.02 10^9/L); type: organism-based; conditions: in vivo, 72 h, time 3 day
# HeLa [17] = test: Antiproliferative activity against human HeLa cells assessed as inhibition of cell growth incubated for 48 hrs in absence of beta-glucuronidase by MTT assay; type: functional, cell-based
# [18] = Toxicity in nude mouse xenografted with human MDA-MB-231 cells assessed as pathological changes in kidney at 20 to 40 mg/kg, iv administered every 2 days for 14 days by H and E staining based assay; type: organism-based; conditions: in vivo, 336 h, dose 20-40 mg/kg, time 14 day
# MDA-MB-231 [19] = test: Antitumour activity against human MDA-MB-231 cells xenografted in nude mouse assessed as reduction in tumor volume at 40 mg/kg, iv administered every 2 days for 14 days; type: functional, organism-based; conditions: time 14.0 day
# MDA-MB-231 [20] = test: Antiproliferative activity against human MDA-MB-231 cells assessed as inhibition of cell growth incubated for 48 hrs in absence of beta-glucuronidase by MTT assay; type: functional, cell-based; conditions: MDA-MB-231, 48 h
# [21] = Toxicity in nude mouse assessed as effect on basophil level at 40 mg/kg, iv administered qd for 3 days (reference value: 11.70 %); type: organism-based; conditions: in vivo, 72 h, time 3 day
# [22] = Toxicity in nude mouse assessed as effect on eosinophil level at 40 mg/kg, iv administered qd for 3 days (reference value: 6 %); type: organism-based; conditions: in vivo, 72 h, time 3 day
# [23] = Toxicity in nude mouse assessed as ratio of effect on aspartate aminotransferase level […] level in serum at 40 mg/kg, iv administered qd for 3 days (reference value: 1.38); type: organism-based; conditions: in vivo, 72 h, time 3 day
# [24] = Toxicity in nude mouse assessed as effect on total protein level in serum at 40 mg/kg, iv administered qd for 3 days (reference value: 47.3 g/L); type: organism-based; conditions: in vivo, 72 h, time 3 day
# [25] = Toxicity in nude mouse assessed as effect on mean corpuscular hemoglobin concentration at 40 mg/kg, iv administered qd for 3 days (reference value: 473 g/L); type: organism-based; conditions: in vivo, 72 h, time 3 day
# [26] = Toxicity in nude mouse xenografted with human MDA-MB-231 cells assessed as pathological changes in spleen at 20 to 40 mg/kg, iv administered every 2 days for 14 days by H and E staining based assay; type: organism-based; conditions: in vivo, 336 h, dose 20-40 mg/kg, time 14 day
# [27] = Toxicity in nude mouse assessed as effect on red blood cell count at 40 mg/kg, iv administered qd for 3 days (reference value: 0.21 10^12/L); type: organism-based; conditions: in vivo, 72 h, time 3 day
# [28] = Toxicity in nude mouse assessed as effect on mean corpuscular hemoglobin level at 40 mg/kg, iv administered qd for 3 days (reference value: 22.3 pg); type: organism-based; conditions: in vivo, 72 h, time 3 day
# [29] = Toxicity in nude mouse assessed as effect on alanine aminotransferase level in serum at 40 mg/kg, iv administered qd for 3 days (reference value: 308 U/L); type: organism-based; conditions: in vivo, 72 h, time 3 day
# [30] = Toxicity in nude mouse assessed as effect on gamma-glutamyl transpeptidase level in serum at 40 mg/kg, iv administered qd for 3 days (Rvb < 2 U/L); type: organism-based; conditions: in vivo, 72 h, time 3 day
# [31] = Toxicity in nude mouse assessed as effect on albumin level in serum at 40 mg/kg, iv administered qd for 3 days (reference value: 31.2 g/L); type: organism-based; conditions: in vivo, 72 h, time 3 day
# MCF7 = test: Antiproliferative activity against human MCF7 cells assessed as inhibition of cell growth incubated for 48 hrs in presence of beta-glucuronidase by MTT assay; type: functional, cell-based; conditions: MCF7, 48 h
# [32] = Aqueous solubility of compound in PBS at pH 7.4 at 1 mg incubated for 10 mins by HPLC analysis; type: physicochemical
# [33] = Toxicity in nude mouse assessed as effect on aspartate aminotransferase level in serum at 40 mg/kg, iv administered qd for 3 days (reference value: 424 U/L); type: organism-based; conditions: in vivo, 72 h, time 3 day
# [34] = Toxicity in nude mouse xenografted with human MDA-MB-231 cells assessed as effect on body weight at 20 to 40 mg/kg, iv administered every 2 days for 14 days; type: organism-based; conditions: in vivo, 336 h, dose 20-40 mg/kg, time 14 day
structure (smiles),measurement,setting,value
COc1ccc([C@H]2[C@H](CO)C(=O)N2c2cc(OC)c(OC)c(OC)c2)cc1OCc1ccc(O[C@@H]2O[C@H](C(=O)O)[C@@H](O)[C@H](O)[C@H]2O)cc1,Activity,[1],Non-Toxic
same,Stability,[2],Stable
same,pIC50,HeLa [3],8.05
same,Activity,[4],56 U/L
same,Stability,[5],Unstable
same,Activity,MDA-MB-231 [6],Active
same,pIC50,MDA-MB-231 [7],7.93
same,Stability,[8],Stable
same,Activity,[9],7.9%
same,pIC50,SK-OV-3,< 4.30
same,Activity,[10],Non-Toxic
same,CLint scaled,[11],< 38 mL/min/kg
same,Activity,[12],21.9%
same,inhibition in vivo at 20 mg/kg,MDA-MB-231 [13],50%
same,LD50 at 336 h,[14],> 500 mg/kg
same,Activity,[15],17
same,Activity,[16],0.12 10^9/L
same,pIC50,HeLa [17],< 4.30
same,Activity,[18],Non-Toxic
same,Activity,MDA-MB-231 [19],Active
same,pIC50,MDA-MB-231 [20],< 4.30
same,Activity,[21],6.8%
same,Activity,[22],6.2%
same,Ratio,[23],1.59
same,Activity,[24],45.5 g/L
same,Activity,[25],512 g/L
same,Activity,[26],Non-Toxic
same,Activity,[27],0.31 10^12/L
same,Activity,[28],22.3 pg
same,Activity,[29],316 U/L
same,Activity,[30],< 2 U/L
same,Activity,[31],29.5 g/L
same,pIC50,MCF7,7.80
same,solubility at 10 min,[32],> 40 mg/mL
same,Activity,[33],503 U/L
same,Activity,[34],Non-Toxic
